Measurements: patent US20260243757A1, “IMMUNE CELL-DERIVED SECRETOME” (Agency for Science, Technology and Research, priority 2023, published 2026)

Columns and labels:
D341 = assay: Drug treatment in secretome versus standard media (FIG. 41); format: cell-based, human
[1] = tested on: CHLA01 (primary tumour cells); assay: as above; format: cell-based, human; conditions: CHLA01 neurospheres
[2] = tested on: CHLA01R (recurrent/relapse tumour cells); assay: as above; format: cell-based, human; conditions: CHLA01R neurospheres
[3] = tested on: ATRT cell lines and medulloblastoma; assay: Drug efficacy in the presence of the secretome; format: cell-based, human; conditions: during early tumourigenesis
Medulloblastoma = assay: Ispinesib in PDX brain tumors implanted using secretome+Tumor (Batch 94B); format: in vivo, mice; conditions: 10 mg/kg intraperitoneally every four days for three doses, repeated on day 21
Experimental: (§1) Rag2/Severe combined immune deficiency (SCID) mice were bred and housed in a pathogen-free facility. Surgical implantation of tumour cells ([…]) into mouse cerebrum was performed using the method of the present disclosure previously described by studies in the art. The general recommendations in ARRIVE guidelines 2.0 (https://arriveguidelines.org/) were followed in the study of the present disclosure. The sample size of the present disclosure was small. […] The animals were randomly assigned into treatment versus control groups to have approximately equal number of animals per group. […] Treatment was delivered to animals assigned in treatment group, cage-by-cage. Blinding was not possible as the inventor of the present disclosure have a small team of 2-3 individuals working with the animals and the inventor of the present disclosure are all involved at various stages and day-to-day processes of the animal work. Separate batches comprising of various litters were used, minimizing bias from the same litter effect. The inventor of the present disclosure has previously published using this animal protocol and is not otherwise deposited in any repository/registry.
OTSSP167 was dissolved in a solution of dimethyl sulfoxide, Kolliphor® EL and sterile water. A daily dose of 5 mg/kg of OTSSP167 was administered to the mice via intraperitoneal injection for 14 days. […]

CHLA-02 [4] = assay: Proliferation assay (standard growth media), OTSSP167 dose-response; format: cell-based; conditions: Homo sapiens, 96 h, Day 4
Experimental: (§2) Tumour cells were seeded in quadruplicates for each treatment condition (FIG. 5B). OTSSP167 was added. Cell proliferation was determined, and optical density (OD) was measured using a fluorescence/luminescence detection System.

BT-37 [5] = assay: as above; format: cell-based, human
Experimental: as §2

six ATRT cell lines = assay: Proliferation assay (standard growth media), panel; format: cell-based, human; conditions: over 13 days
Experimental: as §2

CHLA-04 = assay: Proliferation assay (standard growth media), OTSSP167; format: cell-based, human; conditions: MELK-low CHLA-04; 50 nM dose
Experimental: as §2

BT-37 [6] = assay: Flow cytometry for apoptotic cell death (Annexin V/PI); format: cell-based, human; conditions: BT-37 cells; 48 hours of OTSSP167 treatment
Experimental: (§3) Tumour cells were treated in culture with OTSSP167 to detect apoptosis (FIG. 5C). At each timepoint, cells were harvested and stained with Annexin V-FITC and PI. Stained cells were then analysed by flow cytometry at the excitation wavelength of 488 nm (FITC) and 595 nM (PI). Cultured cells were treated with OTSSP167 to study the cell cycle changes. Cells were harvested and fixed with absolute ethanol. Fixed cells were stained with PI/RNase A master mix (PI and RNase A) prior to analysis by flow cytometry.

CHLA-02 [7] = assay: as above; format: cell-based, human; conditions: CHLA-02 cells; 48 hours of OTSSP167 treatment
Experimental: as §3

CHLA-02 and BT-37 cells = assay: Immunoblotting after OTSSP167 treatment; format: cell-based, human
Experimental: Cells were lysed in RIPA buffer with 1% Protease and Phosphatase Inhibitor Cocktail on ice. Protein samples were first denatured with 5% β-mercaptoethanol in Laemmli's buffer at 95° C. Protein concentration was determined using Protein Assay Kit. Protein lysates were resolved, and equal amounts of denatured proteins was run on NuPAGE 4-12% Bis-Tris Protein Gel and transferred onto PVDF membrane. Membrane blots for phosphorylated Histone H2A.X were blocked with 5% Bovine serum albumin (BSA) in 1× TBS-T ([…] Tris-buffered Saline, 0.1 % Tween® 20). Other membrane blots were blocked with 5% skim milk in 1× TBS-T for 1 hour and incubated with its respective primary antibodies at 4° C. overnight. Protein bands were visualized using an imaging system with Western blotting substrate. Primary antibodies used were: Eg5, cleaved PARP, β-actin, cleaved caspase-3, and p53, p-Histone H2A.X, p21. Secondary antibodies included: anti-rabbit IgG HRP-linked and anti-mouse IgG HRP linked.

[8] = tested on: autopsy-derived patient-derived orthotopic xenograft (PDOX) Model of ATRT; assay: Orthotopic xenograft survival, intraperitoneal OTSSP167; format: in vivo, mice; conditions: 5 mg/kg daily intraperitoneal for 14 days; p=0.032, Log-rank test
Experimental: as §1
OTSSP167 was dissolved in a solution of dimethyl sulfoxide, Kolliphor® EL and sterile water. […]
Mice were carefully monitored daily their fitness using a clinical staging system we previously published. […]

CHLA-02, BT-37 = assay: Cell proliferation assay (secretome-based or growth-media-based), DMSO or OTSSP167; parameters: species or system human
Experimental: Human myeloid-derived cells (U937) were seeded at a fixed density and stimulated with PMA and IL-4 for 48 h to obtain CD 11b+ cells. Stimulated human myeloid-derived macrophages were harvested without trypsinization (Biological replicate 1 in FIG. 4D and FIG. 5E) and with trypsinization (Biological replicate 2 and 3 in FIG. 4D and FIG. 5E). These cells highly express CD11b+ with or without trypsinization (FIG. 14A). CD11b+ cells were washed twice with PBS. CD11b+ cells were plated at a fixed density in 1 ml of pure RPMI (serum-free) to obtain CD11b+ supernatants (Condition 2). CD11b+ cells (same density) were co-incubated with tumour cells at 1:1 ratio in pure RPMI (serum-free) to obtain co-culture supernatant (Condition 3). Tumour cells were seeded at the same density to obtain tumour supernatant (Condition 1). […]
Tumour cells were suspended in 3 types of cell-free supernatants: CD 11b+ supernatant, tumour supernatant, and CD11b+-tumour co-culture supernatant. […] Cell viability was determined by a kit at 4 h, 24 h, 48 h, 72 h time points, over a period of 3 days. Optical density (OD) was measured using a fluorescence/luminescence detection system (FIGS. 4A, 4B, FIG. 18). All other absorbance (OD) was measured at 450 nm using a multilabel plate reader. Absorbance of wells with serum-free pure RPMI was used as blank.

BT-37 [9] = assay: Apoptosis assay of OTSSP167-treated cells, standard growth media versus six-factor secretome; format: cell-based, human
Experimental: (§4) Tumour cells were cultured in either standard growth media or six-factor-secretome for […] different duration −4 h, 24 h, 48 h and 96 h (FIG. 5G). To study the killing effect of OTSSP167, tumour cells cultured in each condition (standard growth media or six-factor-secretome) were treated with OTSSP167. Cells were harvested at respective timepoints and stained with FITC-Annexin V and/or Propidium lodide. Stained cells were then analysed by flow cytometry at the excitation wavelength of 488 nm (FITC) and 595 nM (PI). A total of 10,000 cells were analysed per measurement.

CHLA-02 [10] = assay: as above; format: cell-based, human; conditions: FIG. 37
Experimental: as §4

Daoy = assay: Drug treatment in secretome versus standard media (FIG. 41); format: cell-based, human
CHLA-02 [11] = assay: Photomicrographs of growth morphology in T75 flasks; format: cell-based, human; conditions: OTSSP167 in secretome versus standard growth media
another ATRT mouse model = conditions: cited from earlier work

Cc1ccc(C(=O)N(CCCN)[C@@H](c2nc3cc(Cl)ccc3c(=O)n2Cc2ccccc2)C(C)C)cc1 [Ispinesib, (R)-N-(3-aminopropyl)-N-(1-(3-benzyl-7-chloro-4-oxo-3,4-dihydroquinazolin-2-yl)-2-methylpropyl)-4-methylbenzamide]
cell death/survival with drug in secretome compared to standard media (D341): survive better
cell death/survival with drug in secretome compared to standard media [1]: survive better
cell death/survival with drug in secretome compared to standard media [2]: survive better
drug efficacy in the presence of the secretome [3]: reduced
efficacy in PDX brain tumors implanted using secretome+Tumor (Medulloblastoma): effective

CC(=O)c1cnc2ccc(-c3cc(Cl)c(O)c(Cl)c3)nc2c1N[C@H]1CC[C@H](CN(C)C)CC1 [OTSSP167, 1-(6-(3,5-dichloro-4-hydroxyphenyl)-4-(((1r,4r)-4-((dimethylamino)methyl)cyclohexyl)amino)-1,5-naphthyridin-3-yl)ethenone]
IC50 (CHLA-02 [4]): 20.8 nM
IC50 (BT-37 [5]; Homo sapiens, 96 h, BT-37, Day 4): 70.4 nM
effect against tumour cells (BT-37 [5]; MELK-high BT-37 cells, 5 nM dose): effective
efficacy across panel of ATRT cell lines (dose-response) (six ATRT cell lines): efficacious across a panel of six ATRT cell lines in nanomolar ranges
effect against tumour cells (CHLA-04): effective
early and late apoptotic cells (BT-37 [6]): 58.1%
early and late apoptotic cells (CHLA-02 [7]): 50.7%
p-Histone H2A.X (DNA damage) (CHLA-02 and BT-37 cells; 24 h, 48 h and 72 h treatment): increased
c-PARP (intrinsic apoptosis pathway) (CHLA-02 and BT-37 cells; OTSSP167 treatment): increased
p53 (CHLA-02 and BT-37 cells; OTSSP167 treatment): increased
overall survival of animals [8]: significantly improved
OTSSP167 efficacy in six-factor-secretome compared to standard growth media (tumour proliferation) (CHLA-02, BT-37): decreased
cell death with OTSSP167 in secretome compared to standard media conditions (BT-37 [9]; BT-37, FIG. 38): more cell death
cell death of OTSSP167-treated BT-37 versus CHLA-02 in secretome (BT-37 [9]; in secretome after 24-48 h): more cell death than CHLA-02 cells
cell death with OTSSP167 in secretome compared to standard media conditions (CHLA-02 [10]): more cell death
cell death/survival with drug in secretome compared to standard media (Daoy): higher cell death
cell death/survival with drug in secretome compared to standard media (D341): higher cell death
cell death/survival with drug in secretome compared to standard media [1]: survive better
cell death/survival with drug in secretome compared to standard media [2]: survive better
drug efficacy in the presence of the secretome [3]: reduced
growth morphology of tumour cells treated with OTSSP167 in secretome (CHLA-02 [11]): maintained their interlacing, web-like architecture
blood-brain-barrier penetration (another ATRT mouse model): penetrate blood-brain-barrier
